Counter-ions that a name gives are not always drawn. Like-named read-outs stand apart in the source and are kept apart here.
Legend:
human FSH receptor = molecular target: T1, human FSH receptor (Homo sapiens, UniProt P23945); assay: FSH receptor-dependent CRE-luciferase reporter gene assay (CHO FSH-R 6CRE-Luc cells); format: cell-based; details: for inhibition at 30 µM: test concentration in μM in parentheses (30 μM), % inhibition of the response to the EC50 of FSH
T1 construct: host or cells: CHO-K1 (CHO FSH-R 6CRE-Luc, 1D7 cells)
T1 sequence (P23945 18-695): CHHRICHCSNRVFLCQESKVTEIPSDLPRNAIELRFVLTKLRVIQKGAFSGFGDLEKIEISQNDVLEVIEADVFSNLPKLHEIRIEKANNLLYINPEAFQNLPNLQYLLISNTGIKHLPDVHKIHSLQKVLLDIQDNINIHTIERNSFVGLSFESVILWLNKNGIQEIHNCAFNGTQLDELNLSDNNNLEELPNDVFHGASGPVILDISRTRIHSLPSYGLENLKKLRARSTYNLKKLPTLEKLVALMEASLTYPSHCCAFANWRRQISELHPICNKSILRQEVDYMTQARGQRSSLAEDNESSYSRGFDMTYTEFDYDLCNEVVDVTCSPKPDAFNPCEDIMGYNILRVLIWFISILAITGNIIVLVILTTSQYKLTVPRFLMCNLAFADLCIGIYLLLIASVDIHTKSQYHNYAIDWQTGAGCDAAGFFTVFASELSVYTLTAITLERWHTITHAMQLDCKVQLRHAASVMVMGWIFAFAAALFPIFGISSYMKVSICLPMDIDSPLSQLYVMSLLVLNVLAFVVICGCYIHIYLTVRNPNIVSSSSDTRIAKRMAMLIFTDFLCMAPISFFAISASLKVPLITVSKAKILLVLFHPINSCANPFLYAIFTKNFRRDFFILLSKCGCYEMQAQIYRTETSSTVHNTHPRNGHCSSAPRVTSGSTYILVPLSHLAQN
Description: Follicle-Stimulating Hormone Receptor-Dependent CRE-Luciferase Reporter Gene Assay for the Identification of Follicle-Stimulating Hormone (FSH) Antagonists
This procedure was used to identify and determine the relative potencies of human FSH receptor antagonists using a Chinese hamster ovarian cell line that stably produces the human FSH receptor and a luciferase reporter gene regulated by cAMP response elements.
The compounds were subsequently diluted in DMSO to working dilutions of 1 and 20 or 30 mM for 2-dose testing format and 1 μM-10 mM for dose-response format. The DMSO dilutions were diluted 500-fold in sterile growth medium [D-MEM/F-12 (GIBCO/BRL; Grand Island N.Y.) containing 15 mM HEPES, 2 mM 1-glutamine, pyridoxine hydrochloride, phenol red and 5% FetalClone II (HyClone Laboratories, Inc; Logan, Utah), 0.2% DMSO, 100 units penicillin G/ml, and 100 μg streptomycin sulfate/ml (GIBCO/BRL)]. The concentration of the vehicle in each of the compound dilutions was the same. • Positive Controls: Purified human FSH (>98%) was purchased from Cortex Biochem, Inc. (San Leandro, Calif.) and WAY-162002 (an FSH-R thiazolidinone antagonist) was obtained from the Wyeth Research compound repository. Preparation of Cells
The CHO FSH-R 6CRE-Luc cells (1D7 cells) were obtained from Affymax (Palo Alto, Calif.). These Chinese hamster ovary cells (CHO—K1) were genetically engineered to stably express the recombinant human FSH receptor gene and a luciferase reporter gene under the regulation of 6 copies of a cAMP response element. The cells were plated one day prior to treatment into 96-well white opaque plates at a density of 50,000 cells/100 μl/well in growth medium. On the day of treatment, the growth medium was removed from the wells by aspiration and 50 μl of fresh growth medium was added to each well. The cells were incubated at 37° C. in a humidified incubator with 5% CO2/95% air.
The treated cells were incubated for 4 hours at 37° C. in a humidified incubator with 5% CO2/95% air. At the end of-the incubation period, luciferase activity was measured by chemiluminescence using a commercially available kit (LucScreen, Tropix, Inc., Bedford, Mass.) according to the manufacturer's specifications, except that Buffer 1 and Buffer 2 were mixed together in equal proportion prior to the addition of 100 μl of the combined reagents to each well. Chemiluminescence was detected using a luminometer (EG & G Berthold Microlumat LB 96 P, Wallac, Gaithersburg, Md.) with chemiluminescence measured for 1 sec/well. Background luminescence was measured for each well prior to the addition of the LucScreen reagent.
In the 96-well 2-dose format, each compound was tested in duplicate at each dose. […] One plate was used to test a maximum of 22 compounds.
The EC50 of purified human FSH alone was tested in triplicate with each test compound. The doses chosen to test each compound were extrapolated from the initial 2-dose screening process. Along with the test compounds, purified human FSH was also tested in a dose response (0.03, 0.1, 0.3, 1, 3, 10, and 30 ng/ml) for a positive control and quality control. One plate was used for 3 test compounds and the FSH positive control.
Luciferase activity is expressed as relative light units/sec/well. Luciferase activity in antagonist was compared to the appropriate negative and positive controls. For 2-dose testing, results are reported as luciferase activity and are expressed as % inhibition of the response obtained from the EC50 of FSH. For dose-response testing, results are reported as IC50 values. Data were analyzed statistically by one-way analysis of variance with appropriate weighting and transformation and relevant paired test as determined by Biometrics (Wyeth Research, Princeton, N.J.). IC50 values were calculated using the Stat/Excel program developed by Biometrics with appropriate weighting and transformation.

[1] = dose-response in presence of EC50 of purified human FSH, read-out: CRE IC50

Compound | IC50 (human FSH receptor; positive control, in the presence of EC50 of purified human FSH, read-out: IC50 in CRE-luciferase assay) [µM] | inhibition at 30 µM (human FSH receptor) [%] | IC50 (human FSH receptor; [1]) [µM] | melting point [°C]
NC(=O)c1cccc(N2C(=O)[C@@H](CC(=O)NCCc3c[nH]c4ccccc34)S[C@H]2c2ccc(C#Cc3ccccc3)s2)c1 (relative stereo) [3-[(2S*,5R*)-5-{[2-(1H-Indol-3-yl)-ethylcarbamoyl]-methyl}-4-oxo-2-(5-phenylethynyl-thiophen-2-yl)-thiazolidin-3-yl]-benzamide, reference compound] | 2 | – | – | –
Cc1ccccc1-c1ccc(C(=O)N2Cc3ccc(C(=O)CNc4cccnc4)n3Cc3ccccc32)cc1C [Example 1, 1-{10-[(2,2′-Dimethyl-1,1′-biphenyl-4-yl)carbonyl]-10,11-dihydro-5H-pyrrolo[2,1-c][1,4]benzodiazepin-3-yl}-2-(pyridin-3-ylamino)ethanone formic acid salt] | – | 4 | – | –
O=C(CCc1cccnc1)c1ccc2n1Cc1ccccc1N(C(=O)c1ccc(-c3ccccc3)cc1)C2 [Example 2, 1-[10-(1,1′-Biphenyl-4-ylcarbonyl)-10,11-dihydro-5H-pyrrolo[2,1-c][1,4]benzodiazepin-3-yl]-3-pyridin-3-ylpropan-1-one formic acid salt] | – | – | 10.7 | –
Cc1cc(Cl)ccc1OCC(=O)N1Cc2ccc(C(=O)CCc3ccccc3)n2Cc2ccccc21 [Example 5, 1-{10-[(4-Chloro-2-methylphenoxy)acetyl]-10,11-dihydro-5H-pyrrolo[2,1-c][1,4]benzodiazepin-3-yl}-3-phenylpropan-1-one] | – | – | > 30 | 130 to 134
Cc1cc(Cl)ccc1OCC(=O)N1Cc2ccc(C(=O)c3ccccc3-c3ccccc3)n2Cc2ccccc21 [Example 9, 1,1′-Biphenyl-2-yl{10-[(4-chloro-2-methylphenoxy)acetyl]-10,11-dihydro-5H-pyrrolo[2,1-c][1,4]benzodiazepin-3-yl}methanone] | – | – | > 30 | –
O=C(c1ccc(-c2ccccc2)cc1)c1ccc2n1Cc1ccccc1N(C(=O)COc1ccc(Cl)cc1)C2 [Example 13, 1,1′-Biphenyl-4-yl{10-[(4-chlorophenoxy)acetyl]-10,11-dihydro-5H-pyrrolo[2,1-c][1,4]benzodiazepin-3-yl}methanone] | – | 14 | – | 155 to 157
O=C(c1ccccc1-c1ccccc1)c1ccc2n1Cc1ccccc1N(C(=O)COc1ccc(Cl)cc1)C2 [Example 14, 1,1′-Biphenyl-2-yl{10-[(4-chlorophenoxy)acetyl]-10,11-dihydro-5H-pyrrolo[2,1-c][1,4]benzodiazepin-3-yl}methanone] | – | – | > 30 | –

Second part, the molecule after the results:

IC50 (human FSH receptor; positive control, in the presence of EC50 of purified human FSH, read-out: IC50 in CRE-luciferase assay) [µM] | inhibition at 30 µM (human FSH receptor) [%] | IC50 (human FSH receptor; [1]) [µM] | melting point [°C] | Compound
– | 22 | – | 175 to 176 | Cc1cc(Cl)ccc1OCC(=O)N1Cc2ccc(C(=O)c3ccc(Cl)cc3)n2Cc2ccccc21 [Example 4, {10-[(4-Chloro-2-methylphenoxy)acetyl]-10,11-dihydro-5H-pyrrolo[2,1-c][1,4]benzodiazepin-3-yl}(4-chlorophenyl)methanone]
– | – | > 30 | 130 to 134 | Cc1cc(Cl)ccc1OCC(=O)N1Cc2ccc(C(=O)c3cccc4ccccc34)n2Cc2ccccc21 [Example 6, {10-[(4-Chloro-2-methylphenoxy)acetyl]-10,11-dihydro-5H-pyrrolo[2,1-c][1,4]benzodiazepin-3-yl}(1-naphthyl)methanone]
– | – | > 30 | 102 to 105 | Cc1cc(Cl)ccc1OCC(=O)N1Cc2ccc(C(=O)c3ccc(-c4ccccc4)cc3)n2Cc2ccccc21 [Example 7, 1,1′-Biphenyl-4-yl{10-[(4-chloro-2-methylphenoxy)acetyl]-10,11-dihydro-5H-pyrrolo[2,1-c][1,4]benzodiazepin-3-yl}methanone]
– | – | > 30 | 168 | Cc1cc(Cl)ccc1OCC(=O)N1Cc2ccc(C(=O)c3ccc(C(C)(C)C)cc3)n2Cc2ccccc21 [Example 8, (4-Tert-butylphenyl){10-[(4-chloro-2-methylphenoxy)acetyl]-10,11-dihydro-5H-pyrrolo[2,1-c][1,4]benzodiazepin-3-yl}methanone]
– | – | > 30 | 195 | O=C(c1ccc(Cl)cc1)c1ccc2n1Cc1ccccc1N(C(=O)COc1ccc(Cl)cc1)C2 [Example 10, {10-[(4-Chlorophenoxy)acetyl]-10,11-dihydro-5H-pyrrolo[2,1-c][1,4]benzodiazepin-3-yl}(4-chlorophenyl)methanone]
– | 8 | – | 126 to 128 | O=C(CCc1ccccc1)c1ccc2n1Cc1ccccc1N(C(=O)COc1ccc(Cl)cc1)C2 [Example 11, 1-{10-[(4-Chlorophenoxy)acetyl]-10,11-dihydro-5H-pyrrolo[2,1-c][1,4]benzodiazepin-3-yl}-3-phenylpropan-1-one]
– | – | > 30 | 171 | CC(C)(C)c1ccc(C(=O)c2ccc3n2Cc2ccccc2N(C(=O)COc2ccc(Cl)cc2)C3)cc1 [Example 12, (4-tert-Butylphenyl){10-[(4-chlorophenoxy)acetyl]-10,11-dihydro-5H-pyrrolo[2,1-c][1,4]benzodiazepin-3-yl}methanone]
– | – | 12.1 | 135 to 136 | Cc1ccccc1-c1ccc(C(=O)N2Cc3ccc(C(=O)CCc4cccnc4)n3Cc3ccccc32)cc1 [Example 15, 1-{10-[(2′-Methyl-1,1′-biphenyl-4-yl)carbonyl]-10,11-dihydro-5H-pyrrolo[2,1-c][1,4]benzodiazepin-3-yl}-3-pyridin-3-ylpropan-1-one]
